# Data as given in publication PMC7023466, “Novel N,N′-Disubstituted Acylselenoureas as Potential Antioxidant and Cytotoxic Agents” (Antioxidants, 2020).
# Columns and labels:
# [1] = system: HT-29 cells; experiment: Protective effects against H2O2-induced oxidative stress (MTT); format: cell-based, human; settings: for increase fold of cell survival: compound 0.03 mg/mL, 12 h
# Method: An H2O2-induced oxidative damage model on HT-29 cells was established, and the cell viability was evaluated by MTT assay, as a measurement of the antioxidant activity of the compounds. Asc was used as a positive control. Briefly, 1 × 10^4 HT-29 cells per well were grown in 96-well plates. After 12 h of incubation, DMSO; 4b, 8c, 9c, and 10b compounds; or Asc were added to each well at concentrations of 0.03 and 0.003 mg/mL, and incubated for 1 h. Subsequently, H2O2 (200, 250, and 300 µM) was added and the cells were incubated for 12 h to induce cell damage. An MTT assay was performed as mentioned previously. For each treatment, the mean cell viability was calculated from three independent experiments. The DMSO-treated controls were assigned with a cell viability value of 100% (Vcontrol). The results are expressed as the increase fold of cell survival, as follows:(3) Increase fold of cell survival = (Vsample−Vsample + H2O2)/VControl−VH2O2 where Vsample refers to the viability of the cells only treated with the corresponding compound, VH2O2 refers to the viability of the HT-29 cells exposed to H2O2, and Vsample + H2O2 refers to the cell survival of each treatment with a compound and H2O2. The data are expressed as increase fold of cell survival ± standard error of the mean (SEM) in at least three independent experiments performed in quadruplicates.
# [2] = system: HTB-54 cells; experiment: MTT cell viability assay, HTB-54; format: cell-based; settings: Homo sapiens, HTB-54, 48 h, read-out: Growth (%) HTB-54
# Method: (§1) The cell viability assay of each compound was carried out using the MTT assay. Each compound was dissolved in dimethyl sulfoxide (DMSO) at a concentration of 0.01 M. Serial dilutions were prepared with a non-supplemented culture medium. The effect of each compound on the cell viability was determined at two different concentrations (10 and 50 µM) in MCF-7, HTB-54, and HT-29 cells. In addition, the selected compounds were tested at six different concentrations between 0.1–100 µM in MCF-7, T47D, H1299, HTB-54, and 184B5 cells.
# (§2) Briefly, 1 × 10^4 tumor cells/well or 2 × 10^4 non-tumorigenic cells/well were grown in 96-well plates for 12 h. Then, these cells were incubated with either DMSO (control) or a different concentration of each of the tested compounds for 48 h. Three hours before the termination point, 20 µL of MTT were added to measure the cellular viability. The resultant formazan crystals were dissolved in 50 µL of DMSO, and the absorbance was measured at 570 and 630 nm. The results are expressed as IC50, the half maximal inhibitory concentration. This value was calculated using OriginPro 8.5.1. software (OriginLab, Northampton, MA, USA) by nonlinear curve fitting. Furthermore, the selectivity index (SI) was calculated as the ratio of the IC50 values determined for the non-malignant and the tumor cells (IC50 (184B5)/IC50 (MCF-7). The data were obtained from at least three independent experiments performed in quadruplicates.
# [3] = system: HT-29 cells; experiment: MTT cell viability assay, HT-29; format: cell-based; settings: Homo sapiens, 48 h, read-out: Growth (%) HT-29
# Method: as §1, §2
# [4] = system: MCF-7 cells; experiment: MTT cell viability assay, MCF-7; format: cell-based, human; settings: Homo sapiens, MCF7, 48 h, read-out: Growth (%) MCF-7
# Method: as §1, §2
# [5] = parameters: method as in doi:10.1007/s11172-013-0228-5; settings: conditions not tested by the authors; cited from earlier work
structure (smiles),measurement,setting,value
COc1ccc(NC(=[Se])NC(=O)c2cc3ccccc3s2)cc1 [Compound 9c],increase fold of cell survival,[1]; H2O2 200 µM,≤ 0.8 fold
same,increase fold of cell survival,[1]; H2O2 250 µM,≤ 1.7 fold
same,increase fold of cell survival,[1]; H2O2 300 µM,up to 3.6 fold
same,activity at 10 µM,[2]; 10 μM,64.2%
same,activity at 50 µM,[2]; 50 μM,7.1%
same,activity at 10 µM,[3]; 10 μM,47.9%
same,activity at 50 µM,[3]; 50 μM,37.3%
same,activity at 10 µM,[4]; 10 μM,63%
same,activity at 50 µM,[4]; 50 μM,49.2%
"O=C1O[C@H]([C@@H](O)CO)C(O)=C1O [Asc, Ascorbic acid, reference compound]",protective effect against H2O2-induced oxidative stress,[1]; 0.003 mg/mL,disappeared
O=[Se]([O-])[O-].[Na+].[Na+] [sodium selenite],DPPH radical scavenging activity,[5],only showed DPPH radical scavenging activity at pH 3.0
